Measurements published in patent US9758485B2, “Compounds for controlling arthropods” (priority 2013, dated 2017).
Like-named read-outs stand apart in the source and are kept apart here.

Key:
[1] = logP determination by HPLC on a reversed-phase column (C18), EEC Directive 79/831 Annex V.A8; format: physicochemical
[2] = test system: Phaedon cochleariae; experiment: Phaedon cochleariae - spray test; format: in vivo; conditions: larvae on Chinese cabbage leaf discs, after 7 days
Procedure: Phaedon cochleariae—Spray Test
(§1) Solvent: 78.0 parts by weight of acetone and 1.5 parts by weight of dimethylformamide
(§2) Emulsifier: alkylaryl polyglycol ether
(§3) To produce an appropriate active ingredient formulation, 1 part by weight of active ingredient is dissolved using the specified parts by weight of solvent and made up with water containing an emulsifier concentration of 1000 ppm until the desired concentration is attained. To produce further test concentrations, the preparation is diluted with emulsifier-containing water.
Discs of Chinese cabbage leaves (Brassica pekinensis) are sprayed with an active ingredient formulation of the desired concentration and, after drying, populated with larvae of the mustard beetle (Phaedon cochleariae).
After 7 days, efficacy in % is determined. 100% means that all the beetle larvae have been killed; 0% means that no beetle larvae have been killed.

[3] = test system: Ctenocephalides felis; experiment: Ctenocephalides felis - oral test; format: in vivo; conditions: application rate 100 ppm in citrated cattle blood, adult fleas, kill after 2 days; for pest or weed control at 100 ppm: Ctenocephalides felis, po, 48 h, read-out: efficacy
How it was run: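 Mortality in % was recorded 2 days after about 20 unfed adult cat fleas were allowed to imbibe citrated cattle blood containing the active ingredient through a parafilm membrane. The compound was first taken up in DMSO and then diluted with the blood to the desired concentration.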

[4] = test system: Spodoptera frugiperda; experiment: Spodoptera frugiperda - spray test; format: in vivo; conditions: foliar, 168 h, caterpillars on maize leaf discs, after 7 days, read-out: efficacy; for pest or weed control at 100 g/ha: application rate 100 g/ha
Procedure: Spodoptera frugiperda—Spray Test
as §1, §2, §3
Leaf discs of maize (Zea mays) are sprayed with an active ingredient formulation of the desired concentration and, after drying, populated with caterpillars of the armyworm (Spodoptera frugiperda).
After 7 days, efficacy in % is determined. 100% means that all the caterpillars have been killed; 0% means that no caterpillars have been killed.

[5] = test system: Lucilia cuprina; experiment: Lucilia cuprina test; format: in vivo; conditions: application rate 100 ppm, L1 larvae in minced horsemeat, kill after 2 days; for pest or weed control at 100 ppm: Lucilia cuprina, 48 h, read-out: efficacy
How it was run: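 About 20 L1 larvae placed on minced horsemeat treated with compound, formulated in DMSO and diluted with water to test concentration. Kill in % scored after 2 days (100% = all larvae dead, 0% = none).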

[6] = test system: Tetranychus urticae; experiment: Tetranychus urticae - spray test, OP-resistant; format: in vivo; conditions: foliar, 144 h, bean leaf discs, after 6 days, read-out: efficacy; for pest or weed control at 100 g/ha: application rate 100 g/ha
Procedure: Tetranychus urticae—Spray Test, OP-Resistant
as §1, §2, §3
Discs of bean leaves (Phaseolus vulgaris) infested by all stages of the greenhouse red spider mite (Tetranychus urticae) are sprayed with an active ingredient formulation of the desired concentration.
After 6 days, efficacy in % is determined. 100% means that all the spider mites have been killed; 0% means that none of the spider mites have been killed.

[7] = test system: Ctenocephalides felis; experiment: Ctenocephalides felis - in vitro contact tests with adult cat fleas; format: in vivo; conditions: application rate 5 μg/cm^2 (=500 g/ha), after 48 h (dead or moribund)
How it was run: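 Acetone solution coated on test-tube inner walls (900 ppm gives 5 μg/cm^2). After drying, 5-10 adult cat fleas added and kept horizontal at room temperature and ambient humidity. At 48 h fleas knocked down; motionless or uncoordinated ones counted dead/moribund, giving % efficacy.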

[8] = test system: Boophilus microplus Parkhurst strain, SP-resistant; experiment: Boophilus microplus - dip test; format: in vivo; conditions: application rate 100 ppm; dip of engorged adult female ticks; laying of fertile eggs, after 7 days
How it was run: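 Adult engorged females of SP-resistant Parkhurst strain (8–10 per tube) fully immersed in compound diluted in water from a DMSO solution. Ticks then kept on filter discs in a climate-controlled room; efficacy scored from fertile egg laying at 7 days, with unclear eggs held about 42 days until hatch (100% = no fertile eggs).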

[9] = test system: Musca domestica; experiment: Musca domestica test; format: in vivo; conditions: application rate 100 ppm; adult houseflies; kill after 2 days
How it was run: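 Percent kill of adult houseflies is recorded 2 days after exposure, where 100% denotes all flies dead and 0% none. Flies (10 per vessel) feed from a sponge carrying sugar solution and the aqueous-diluted DMSO formulation.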

[10] = test system: Boophilus microplus; experiment: Boophilus microplus - injection test; format: in vivo; conditions: application rate 20 μg/animal, injected into engorged adult female ticks, laying of fertile eggs, after 7 days; for pest or weed control at 0.02 mg: Rhipicephalus microplus, 168 h, read-out: efficacy
How it was run: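 Compound dissolved in DMSO (10 mg per 0.5 ml, then diluted with DMSO to test concentration); 1 μl injected into the abdomen of 5 engorged adult female ticks, which are then held in a climate-controlled room. Efficacy judged after 7 days by laying of fertile eggs.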

[11] = test system: Amblyomma hebraeum; experiment: Amblyomma hebraeum test (tick nymphs, immersion); format: in vivo; conditions: application rate 100 ppm; tick nymphs immersed for one minute; kill after 42 days
How it was run: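 Tick nymphs immersed for one minute in compound diluted in water from a DMSO concentrate, then held on filter paper in a Petri dish in a climate-controlled cabinet. Kill (%) scored after 42 days; 100% means all ticks dead, 0% none.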

[12] = test system: Rhipicephalus sanguineus; experiment: Rhipicephalus sanguineus - in vitro contact tests with adult brown dog ticks; format: in vivo; conditions: application rate 5 μg/cm^2, after 48 h (dead or moribund)
How it was run: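 Test compound was dissolved in acetone p.a. (9 mg in 1 ml, then diluted), and 250 μl were spread evenly over the inner surface of 25 ml test tubes on an orbital shaker at 30 rpm for 2 h. Once the solvent evaporated, 5-10 adult Rhipicephalus sanguineus ticks were sealed in, kept dark at room temperature, and after 48 h placed on a 45-50° C. hotplate to score dead or moribund ticks.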

[13] = reversed-phase HPLC column (C18), HPLC, reversed-phase C18, acetonitrile/water with formic acid, 55° C., read-out: logP
[14] = reversed-phase HPLC column (C18), HPLC-MS method a); read-out: logP^a)
[15] = Phaedon cochleariae, foliar, 168 h, application rate 100 g/ha, read-out: efficacy
[16] = reversed-phase HPLC column (C18), HPLC-MS method a), Table I-T3; read-out: logP^a)

`Cc1cc(C(F)(C(F)(F)F)C(F)(F)F)cc(C)c1-c1ccn(-c2ccc(Cl)c(C(=O)NC3CC3)c2)n1` [I-T2-1, 2-chloro-N-cyclopropyl-5-[3-[2,6-dimethyl-4-[1,2,2,2-tetrafluoro-1-(trifluoromethyl)ethyl]phenyl]pyrazol-1-yl]benzamide] gave a chromatographic logP [1, 13] of 4.9, a chromatographic logP [1, 14] of 4.9 and a pest or weed control at 100 g/ha [2, 15] of 100%.
`O=C(NC1CC1)c1cc(-c2cnn(-c3c(F)cc(C(F)(F)F)cc3F)c2)ccc1Cl` [I-T3-48, 2-chloro-N-cyclopropyl-5-[1-[2,6-difluoro-4-(trifluoromethyl)phenyl]pyrazol-4-yl]benzamide] showed a chromatographic logP [1, 13] of 3.2, a chromatographic logP [1, 16] of 3.2 and a chromatographic logP [1, 14] of 3.2. For the same compound, the pest or weed control at 100 ppm [3] was 100%, the pest or weed control at 100 g/ha [4] was 100% and the pest or weed control at 100 ppm [5] was 100%. For the same compound, the pest or weed control at 100 g/ha [2, 15] was 100%.
With `COc1cc(C(F)(F)F)cc(F)c1-n1cc(-c2ccc(Cl)c(C(=O)NC3CC3)c2)cn1` [I-T3-50, 2-chloro-N-cyclopropyl-5-[1-[2-fluoro-6-methoxy-4-(trifluoromethyl)phenyl]pyrazol-4-yl]benzamide] the chromatographic logP [1, 13] was 3.1, the chromatographic logP [1, 16] was 3.1 and the chromatographic logP [1, 14] was 3.1. It also gave a pest or weed control at 100 ppm [3] of 100%, a pest or weed control at 100 g/ha [4] of 83% and a pest or weed control at 100 ppm [5] of 100%. It also gave a pest or weed control at 100 g/ha [2, 15] of 100% and a pest or weed control at 100 g/ha [6] of 90%.
With `Cc1ncc(-c2cnn(-c3c(Cl)cc(C(F)(C(F)(F)F)C(F)(F)F)cc3C(F)(F)F)c2)cc1C(=O)NC1(C#N)CC1` [I-T3-125] the “log P” value ([1]; HPLC-MS, reversed-phase column (C18)) was 3.8, the efficacy [3] was 100% and the efficacy [5] was 100%. For the same compound, the efficacy [7] was 100%, the efficacy [8] was 100% and the efficacy [9] was 100%. The efficacy [10] was 100%, the efficacy ([2]; application rate 100 g/ha) was 100% and the efficacy [11] was 100%.
In the case of `Cc1cc(C(F)(C(F)(F)F)C(F)(F)F)cc(C(F)(F)F)c1-n1cc(-c2ccc(Cl)c(C(=S)NC3CC3)c2)cn1` [I-T3-161, 2-chloro-N-cyclopropyl-5-[1-[2-methyl-4-[1,2,2,2-tetrafluoro-1-(trifluoromethyl)ethyl]-6-(trifluoromethyl)phenyl]pyrazol-4-yl]benzenecarbothioamide], the chromatographic logP [1, 13] is reported as 5, the chromatographic logP ([1]; reversed-phase HPLC column (C18), HPLC-MS method a), reversed-phase column (C18); read-out: logP^a)) is reported as 5 and the chromatographic logP ([1]; reversed-phase HPLC column (C18), HPLC-MS, reversed-phase column (C18), read-out: log P) is reported as 5. The pest or weed control at 100 ppm [3] was 100%, the pest or weed control at 100 g/ha [4] was 100% and the pest or weed control at 100 ppm [5] was 100%. The efficacy [12] was 100%, the efficacy [9] was 100% and the pest or weed control at 0.02 mg [10] was 100%. The pest or weed control at 100 g/ha [2, 15] was 100% and the pest or weed control at 100 g/ha [6] was 100%.
`Cc1cc(C(F)(C(F)(F)F)C(F)(F)F)cc(C)c1-c1cnn(-c2ccc(Cl)c(C(=O)NC3CC3)c2)c1` [I-T4-1, N-cyclopropyl-2-chloro-5-[4-[2,6-dimethyl-4-[1,2,2,2-tetrafluoro-1-(trifluoromethyl)ethyl]phenyl]pyrazol-1-yl]benzamide] showed a chromatographic logP [1, 13] of 4.74, a pest or weed control at 100 ppm [3] of 100% and a pest or weed control at 100 g/ha [4] of 100%. It also gave a pest or weed control at 100 ppm [5] of 100%, a pest or weed control at 100 g/ha [2, 15] of 100% and a pest or weed control at 100 g/ha [6] of 100%.
Compound `Cc1cc(C(F)(C(F)(F)F)C(F)(F)F)cc(C)c1-c1cnn(-c2cnc(Cl)c(C(=O)NC3CC3)c2)c1` [I-T4-3, 2-chloro-N-cyclopropyl-5-[4-[2,6-dimethyl-4-[1,2,2,2-tetrafluoro-1-(trifluoromethyl)ethyl]phenyl]pyrazol-1-yl]pyridine-3-carboxamide] has a chromatographic logP [1, 13] of 4.42, a pest or weed control at 100 ppm [3] of 100% and a pest or weed control at 100 g/ha [4] of 100%. It also gave a pest or weed control at 100 ppm [5] of 100%, a pest or weed control at 100 g/ha [2, 15] of 100% and a pest or weed control at 100 g/ha [6] of 100%.
For `Cc1cc(C(F)(C(F)(F)F)C(F)(F)F)cc(C)c1-c1cc(-c2ccc(Cl)c(C(=O)NC3CC3)c2)on1` [I-T22-1, 2-chloro-N-cyclopropyl-5-[3-[2,6-dimethyl-4-[1,2,2,2-tetrafluoro-1-(trifluoromethyl)ethyl]phenyl]isoxazol-5-yl]benzamide], the chromatographic logP [1, 13] was 4.75, the pest or weed control at 100 ppm [3] was 100% and the pest or weed control at 100 g/ha [4] was 100%. It also gave a pest or weed control at 100 ppm [5] of 100%, a pest or weed control at 100 g/ha [2, 15] of 100% and a pest or weed control at 100 g/ha [6] of 90%.
With `Cc1cc(C(F)(C(F)(F)F)C(F)(F)F)cc(C(F)(F)F)c1-c1cc(-c2ccc(Cl)c(C(=O)NC3(C#N)CC3)c2)on1` [I-T22-7, 2-chloro-N-(1-cyanocyclopropyl)-5-[3-[2-methyl-4-[1,2,2,2-tetrafluoro-1-(trifluoromethyl)ethyl]-6-(trifluoromethyl)phenyl]isoxazol-5-yl]benzamide] the chromatographic logP [1, 13] was 4.7, the pest or weed control at 100 ppm [3] was 100% and the pest or weed control at 100 g/ha [4] was 100%. For the same compound, the pest or weed control at 100 ppm [5] was 100%, the efficacy [7] was 100% and the efficacy [12] was 100%. For the same compound, the efficacy [8] was 100%, the efficacy [9] was 100% and the pest or weed control at 0.02 mg [10] was 100%. The pest or weed control at 100 g/ha [2, 15] was 100% and the pest or weed control at 100 g/ha [6] was 100%.
For `O=C(NC1CC1)c1cc(-c2cc(-c3c(Cl)cc(C(F)(C(F)(F)F)C(F)(F)F)cc3Cl)on2)ccc1Cl` [I-T23-1, 2-chloro-N-cyclopropyl-5-[5-[2,6-dichloro-4-[1,2,2,2-tetrafluoro-1-(trifluoromethyl)ethyl]phenyl]isoxazol-3-yl]benzamide], the chromatographic logP [1, 13] was 4.96, the pest or weed control at 100 ppm [3] was 100% and the pest or weed control at 500 g/ha ([4]; application rate 500 g/ha) was 100%. It also gave a pest or weed control at 100 ppm [5] of 100%, a pest or weed control at 500 g/ha ([2]; Phaedon cochleariae, foliar, 168 h, application rate 500 g/ha, read-out: efficacy) of 100% and a pest or weed control at 500 g/ha ([6]; application rate 500 g/ha) of 100%.
